Test results from ChEMBL document CHEMBL4665676, “Matrix Metalloproteinases as New Targets in Alzheimer's Disease: Opportunities and Challenges” (J Med Chem, 2020).
Peptide text beside a SMILES is read from it.

Tests used:
[1] = target: T1, Matrix metalloproteinase-14 (Homo sapiens, UniProt P50281); test: Inhibition of MT1-MMP catalytic domain (unknown origin) expressed in Escherichia coli using 7-methoxycoumarin-4-yl)acetyl-Pro-Leu-Gly-Leu-(3-[2,4-dinitrophenyl]-L-2,3-diaminopropionyl)-Ala-Arg-NH2 as substrate incubated for 30 mins by fluorescence method
[2] = target: Macrophage metalloelastase (Homo sapiens, UniProt P39900); test: Inhibition of recombinant human MMP12 using Mca-Pro-Leu-Gly-Leu-Dpa-Ala-Arg-NH2 as substrate by […] method
[3] = target: T2, 72 kDa type IV collagenase (Homo sapiens, UniProt P08253); test: Inhibition of human MMP2 measured at 5 mins interval for 1 hr by fluorescence method
[4] = target: T3, Matrix metalloproteinase-9 (Homo sapiens, UniProt P14780); test: Inhibition of human MMP9 measured at 5 mins interval for 1 hr by fluorescence method
[5] = target: T2, 72 kDa type IV collagenase; test: Inhibition of MMP2 (unknown origin) using 3163v as substrate preincubated for 15 mins followed by substrate addition and measured after 40 mins by fluorometric method
[6] = target: T1, Matrix metalloproteinase-14; test: Inhibition of human MT1-MMP using 3163v as substrate preincubated for 15 mins followed by substrate addition and measured after 40 mins by fluorometric method
[7] = target: Stromelysin-1 (Homo sapiens, UniProt P08254); test: Inhibition of MMP3 (unknown origin) using 3168v as substrate preincubated for 15 mins followed by substrate addition and measured after 40 mins by fluorometric method
[8] = target: T4, Matrilysin (Homo sapiens, UniProt P09237); test: Inhibition of human MMP7 using 3163v as substrate preincubated for 15 mins followed by substrate addition and measured after 40 mins by fluorometric method
T4 sequence (P09237 whole entry): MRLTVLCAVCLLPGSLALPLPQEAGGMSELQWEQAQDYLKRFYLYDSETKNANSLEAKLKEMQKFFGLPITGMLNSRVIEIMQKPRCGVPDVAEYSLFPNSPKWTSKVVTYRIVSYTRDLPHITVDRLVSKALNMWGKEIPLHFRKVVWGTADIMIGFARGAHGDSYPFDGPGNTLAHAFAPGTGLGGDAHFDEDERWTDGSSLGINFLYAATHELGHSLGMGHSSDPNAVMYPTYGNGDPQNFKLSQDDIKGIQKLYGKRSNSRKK

[9] = target: T3, Matrix metalloproteinase-9; test: Inhibition of human MMP9 using 3163v as substrate preincubated for 15 mins followed by substrate addition and measured after 40 mins by fluorometric method

T3 sequence (P14780 whole entry): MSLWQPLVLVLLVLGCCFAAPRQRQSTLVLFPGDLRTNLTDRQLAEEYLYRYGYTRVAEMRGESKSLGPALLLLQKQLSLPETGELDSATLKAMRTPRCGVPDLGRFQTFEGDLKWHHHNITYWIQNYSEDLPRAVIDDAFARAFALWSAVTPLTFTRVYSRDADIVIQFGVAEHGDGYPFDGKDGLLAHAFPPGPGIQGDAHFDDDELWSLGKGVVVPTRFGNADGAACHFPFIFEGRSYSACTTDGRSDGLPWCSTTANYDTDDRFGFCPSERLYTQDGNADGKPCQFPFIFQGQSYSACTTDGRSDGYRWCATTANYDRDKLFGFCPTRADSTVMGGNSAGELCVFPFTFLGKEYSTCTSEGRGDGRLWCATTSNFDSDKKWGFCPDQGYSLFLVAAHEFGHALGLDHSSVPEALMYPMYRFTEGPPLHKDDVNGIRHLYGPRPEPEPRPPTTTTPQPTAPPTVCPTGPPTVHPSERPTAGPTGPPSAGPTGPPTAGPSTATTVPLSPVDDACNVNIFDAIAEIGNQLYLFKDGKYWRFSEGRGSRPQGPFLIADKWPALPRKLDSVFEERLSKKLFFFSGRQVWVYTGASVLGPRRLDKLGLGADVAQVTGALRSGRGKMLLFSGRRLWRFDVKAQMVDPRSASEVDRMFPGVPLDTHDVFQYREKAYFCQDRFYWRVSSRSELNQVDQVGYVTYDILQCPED
T2 sequence (P08253 whole entry): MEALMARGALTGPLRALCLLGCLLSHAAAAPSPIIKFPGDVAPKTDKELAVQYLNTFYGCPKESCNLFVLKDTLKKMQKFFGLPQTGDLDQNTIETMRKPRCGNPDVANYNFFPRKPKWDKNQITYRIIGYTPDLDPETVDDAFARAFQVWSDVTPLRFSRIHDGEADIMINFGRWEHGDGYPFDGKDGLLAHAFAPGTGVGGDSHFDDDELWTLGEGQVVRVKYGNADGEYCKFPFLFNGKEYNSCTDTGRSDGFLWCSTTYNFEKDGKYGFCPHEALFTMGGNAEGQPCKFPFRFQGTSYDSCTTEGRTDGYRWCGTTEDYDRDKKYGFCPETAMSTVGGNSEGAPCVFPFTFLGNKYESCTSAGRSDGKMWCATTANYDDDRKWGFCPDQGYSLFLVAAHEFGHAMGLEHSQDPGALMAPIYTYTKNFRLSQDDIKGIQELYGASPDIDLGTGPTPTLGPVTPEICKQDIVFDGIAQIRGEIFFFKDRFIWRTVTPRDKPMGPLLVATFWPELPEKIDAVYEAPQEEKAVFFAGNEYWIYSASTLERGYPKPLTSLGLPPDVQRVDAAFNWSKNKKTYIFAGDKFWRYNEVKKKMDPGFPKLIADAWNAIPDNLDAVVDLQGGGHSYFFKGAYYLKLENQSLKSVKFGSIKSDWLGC
Sequence of Macrophage metalloelastase (P39900 whole entry): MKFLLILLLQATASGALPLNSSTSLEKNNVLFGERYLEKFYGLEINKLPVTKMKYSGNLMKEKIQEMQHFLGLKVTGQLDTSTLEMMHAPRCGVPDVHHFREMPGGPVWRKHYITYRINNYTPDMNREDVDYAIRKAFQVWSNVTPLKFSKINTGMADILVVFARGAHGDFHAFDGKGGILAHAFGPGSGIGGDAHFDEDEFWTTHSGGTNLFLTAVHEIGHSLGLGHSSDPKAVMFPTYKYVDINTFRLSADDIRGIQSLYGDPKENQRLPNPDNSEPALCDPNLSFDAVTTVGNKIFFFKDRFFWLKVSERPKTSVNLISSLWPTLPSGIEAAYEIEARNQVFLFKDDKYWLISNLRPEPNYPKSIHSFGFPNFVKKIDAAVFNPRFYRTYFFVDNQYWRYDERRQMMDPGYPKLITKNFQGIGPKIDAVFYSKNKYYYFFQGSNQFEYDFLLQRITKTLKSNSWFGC
Sequence of Stromelysin-1 (P08254 whole entry): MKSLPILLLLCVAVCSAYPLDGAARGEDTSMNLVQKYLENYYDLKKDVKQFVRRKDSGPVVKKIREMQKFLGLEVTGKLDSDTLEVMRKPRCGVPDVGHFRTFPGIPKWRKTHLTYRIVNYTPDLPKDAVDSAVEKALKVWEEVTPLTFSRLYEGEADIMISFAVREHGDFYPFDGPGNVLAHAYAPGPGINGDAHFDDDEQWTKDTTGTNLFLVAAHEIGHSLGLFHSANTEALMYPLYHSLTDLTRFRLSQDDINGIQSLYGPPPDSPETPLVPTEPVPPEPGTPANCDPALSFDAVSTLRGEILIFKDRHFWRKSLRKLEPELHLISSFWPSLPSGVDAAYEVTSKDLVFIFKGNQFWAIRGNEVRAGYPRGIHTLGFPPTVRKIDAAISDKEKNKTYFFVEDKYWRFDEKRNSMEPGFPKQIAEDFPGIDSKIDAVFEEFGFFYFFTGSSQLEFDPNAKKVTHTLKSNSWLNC

Structure (SMILES): CCCC(C)NC(=O)c1ccc(Cl)c(Cl)c1 (centres undefined)
- IC50 [1]: > 100000 nM

Structure (SMILES): NC(=O)[C@H](CCC(=O)O)NC(=O)c1ccc(-c2cc(-c3ccccc3)cs2)cc1
- IC50 [2]: 2.5 nM

Structure (SMILES): CCCCCC(=O)N1CC(F)(F)C[C@@H]1C(=O)N(C)[C@H](C(=O)N[C@@H](CCNC(=O)c1ccccc1)C(=O)NO)[C@@H](C)CC
- IC50 [3]: 656 nM
- IC50 [4]: 310 nM

Structure (SMILES): CC[C@H](C)[C@H](N)C(=O)N[C@@H](CO)C(=O)N[C@@H](Cc1ccc(O)cc1)C(=O)NCC(=O)N[C@@H](CC(N)=O)C(=O)N[C@@H](CC(=O)O)C(=O)N[C@@H](C)C(=O)N[C@@H](CC(C)C)C(=O)N[C@@H](CCSC)C(=O)N1CCC[C@H]1C(=O)O (H-ISYGNDALMP-OH)
- IC50 [5]: 30 nM
- IC50 [6]: 2000 nM
- IC50 [7]: > 10000 nM
- IC50 [8]: > 10000 nM
- IC50 [9]: > 10000 nM
